Source: patent US8936809B2, “Method for treating prostate diseases based on local delivery of active substances” (Lidds AB, priority 2005, dated 2015)
Values joined by “and” are separate entries in the source; they are usually repeats but may differ in a detail not shown here. Identical values can stand only once.

Columns and labels:
[1] = Plasma pharmacokinetics and tissue level after local administration of ceramic-based controlled release composition into dog prostate (Example 1); assay type: in vivo
Procedure: One week later, the same animals were given 2-hydroxy-flutamide locally by a controlled release pharmaceutical composition in the prostate tissue. The 2-hydroxy- flutamide doses were 0 mg (H1), 30 mg (H3), 60 mg (H2) and 120 mg (H4), and each dog was given one implant only. Where H1 was a control given the composition without 2-hydroxy-flutamide. All doses of 2-hydroxy-flutamide were given after an overnight fast. Dog 1 (H1) and dog 3 (H3) were given an enema preoperatively. After the local prostate application of the pharmaceutical composition through rectum, an antibiotic (Quinolon) was administered in normal doses.
The controlled release pharmaceutical composition was composed of a calcium sulphate ceramic and 2-hydroxy-flutamide (Catalogue No. 161.01, from Micromol). To prepare the implant, a calcium sulfate hemi-hydrate (Calcium Sulfate-0.5-hydrate, Product No. 12090, from Riedel-de Haen) is mixed as a fine-grained powder with water and the active agent to form an injectable paste. The paste solidifies in-vivo in about 5 minutes to a solid implant. The ceramic powder to water ratio is 1:2 and the dose of active agent (30, 60 or 120 mg) is mixed with a total 0.8 ml of paste.
The controlled release pharmaceutical composition was inserted locally into the prostate tissue through needles by ultrasound guidance. The animals were under general anesthesia during the insertion procedure. The needle (15 cm long with an outer diameter of 0.9 mm) was inserted into the prepared rectum (an enema was given preoperatively) and was inserted through the rectal and abdominal wall and positioned in the prostate tissue by ultrasound guidance. The pharmaceutical composition was given as multiple thin strings of approximately 12 mm length and with a diameter of 1-2 mm.
After administration of the controlled release pharmaceutical composition in the prostate tissue, blood samples were taken during 3 weeks. Samples of 1.0 ml were taken from the Cephalic vein at day 0, after 6 hours and then in the morning at day 1, 2, 3, 4, 5, 6, 9, 12, 14, 16, 19 and 20 following the administration of the implant. The blood samples were immediately centrifuged at 3000 rpm and the plasma samples were frozen at −20° C. until analysis.
After day 20, each dog was terminated with an intravenous dose of a mixture of pentobarbital and potassium. The following organs were surgical removed and frozen: prostate, testis, liver and kidney for the assessment of effect and safety. These organs were carefully examined as a consequence of the local tissue exposure of 2-hydroxy-flutamide and the ceramic-based implant.
Quantification of 2-hydroxy-flutamide in plasma and tissue samples was done by HPLC-MS. HPLC was performed with a Surveyor HPLC system equipped with a CTC Pal autosampler. The analytical column was a Zorbax Eclipse XDB-18 (2.1 mm×50 mm, particle size 5 μm) connected to a guard column. The eluent consisted of solvent A (aqueous formic acid 0.1%) and B (acetonitrile), a linear gradient from 25 to 90% of solvent B in 5 minutes was applied. The proportion of solvent B was then lowered to 25% in one minute and was allowed to equilibrate at this level for two minutes prior to the next injection. The volumetric flow-rate was 200 μL/min and the injection volume was 20 μL. The HPLC column outlet was coupled to a TSQ Quantum Ultra tandem triple quadrupole mass spectrometer (ThermoFinnigan, San José, Calif., USA). The transition of m/z 291 [M-H]^−→205 was used for 2-hydroxy-flutamide and m/z 316 [M-H]^−→273 was used for nilutamide (internal standard). The limit of quantification was 0.50 ng/ml in dog plasma. Calibration samples were prepared by spiking blank plasma samples with 100 μL of solutions of 2-hydroxy-flutamide at different concentrations. […]

[2] = Plasma pharmacokinetics and tissue level after controlled release implant into bulbourethral gland of male sheep (Example 2); assay type: in vivo
Procedure: The major purpose of the present animal study was to examine the pharmacokinetics, efficacy and safety of the novel local drug delivery system with 2-hydroxyflutamide, a selective antagonist to the androgen receptor (AR). A ceramic based drug delivery product was administered into an androgen dependent tissue (the bulbourethral gland) in male sheep. In total 11 male sheep were divided into two separate groups. One group was given 2-hydroxyflutamide by the local implant delivery system as a single administration into the bulbourethral gland and was monitored during 2 months. Each sheep in this treatment group received the prostate implant by a single dose of 250 mg. The other group only received ceramic formulation without any active drug substance.
The implant drug delivery system was inserted locally, via rectum, into the androgen dependent tissue (bulbourethral gland) through sterile needles during rectal ultrasound guidance. The animals were during anaesthesia throughout the insertion procedure. The sterile ceramic based implant had two major components: calcium sulphate (CaSO4-0.5H2O) and 2-hydroxyflutamide. The composition of the formulation was 250 mg 2-hydroxyflutamide+2.25 g calcium sulphate di-hydrate+5.0 g calcium sulphate hemi-hydrate and it was mixed with solution: 3.5 ml of water solution (with 1% acetic acid and 1% methyl cellulose). […] The amount injected into each lobe of the androgen sensitive bulbourethral gland was about 2.0-3.0 ml.
Quantification of 2-hydroxy-flutamide in plasma samples was done by HPLC-MS. HPLC was performed with a Surveyor HPLC system equipped with a CTC Pal autosampler. The analytical column was a Zorbax Eclipse XDB-18 (2.1 mm×50 mm, particle size 5 μm) connected to a guard column. The calibration curves were constructed by linear regression of the peak area ratio of 2-hydroxy-flutamide and internal standard as a function of 2-hydroxy-flutamide concentrations. The method performance was studied using quality control (QC) samples, which were prepared by spiking blank plasma with 2-hydroxy-flutamide.
Sheep plasma (unknown, QC or calibration sample) at a volume of 100 μL was mixed with 100 μL of internal standard solution (nilutamide at 0.025 μg/mL) and 250 μL of acetonitrile. A subsequent vortex mix was performed for 20 seconds followed by a centrifugation for 10 minutes. […] of the supernatant was transferred to a clean test tube and evaporated to dryness at 50° C. in a gentle stream of nitrogen. The residue was reconstituted in 100 μL aqueous formic acid (0.1%) and transferred to a vial for LC-MS/MS analysis.
The formulation was successfully administered in 11 male sheep. Based on the plasma exposure profile the pharmacokinetic variables were calculated with standard methods (Table 4).

[3] = male, Labrador, plasma, dog H2, 60 mg local prostate implant
[4] = male, Labrador, plasma, dog H3, 30 mg local prostate implant
[5] = male, Labrador, plasma, dog H4, 120 mg local prostate implant
[6] = male sheep plasma, 250 mg implant into bulbourethral gland, individual animals

concentration in the prostate tissue ([1]; dogs, after three weeks of treatment with local implant): not possible to quantify
Cmax after intravenous dosing relative to Cmax after local implant dosing ([1]; dogs, i.v. 25 mg versus local implant 120 mg): about 6 times
half-life ([1]; male, Labrador, dog, plasma, 30 mg, dog H3, 30 mg local prostate implant, read-out: t1/2 (converted)): 35 h
half-life ([1]; male, Labrador, dog, plasma, 60 mg, dog H2, 60 mg local prostate implant, read-out: t1/2 (converted)): 45 h
half-life ([1]; male, Labrador, dog, plasma, 120 mg, dog H4, 120 mg local prostate implant, read-out: t1/2 (converted)): 41 h
half-life ([1]; male, Labrador, dog, plasma, 120 mg, given in the ceramic composition, three dosed dogs (30, 60, 120 mg), read-out: elimination half-life): 35 to 45 h
bioavailability ([1]; male, Labrador, dog, plasma, dogs, local prostate implant, on average, read-out: bioavailability from the intraprostate tissue (approximation)): > 100%
AUC [1, 3]: 4020 ng·h/mL
Cmax [1, 3]: 69.5 ng/mL
Tmax [1, 3]: 6 h
AUC [1, 4]: 990 ng·h/mL
Cmax [1, 4]: 26.4 ng/mL
Tmax [1, 4]: 6 h
AUC [1, 5]: 9410 ng·h/mL
Cmax [1, 5]: 142 ng/mL
Tmax [1, 5]: 24 h
Tmax ([2]; male, sheep, plasma, 250 mg, male sheep, 250 mg implant into bulbourethral gland, Mean of seven sheep): 9 h
AUC ([2]; male, sheep, plasma, 250 mg, male sheep, 250 mg implant into bulbourethral gland, Mean of seven sheep, read-out: AUC): 3770 ng·h/mL
Cmax ([2]; male, sheep, plasma, 250 mg, male sheep, 250 mg implant into bulbourethral gland, Mean of seven sheep, read-out: Cmax): 42 ng/mL
half-life ([2]; male, sheep, plasma, 250 mg, male sheep, 250 mg implant into bulbourethral gland, Mean of seven sheep, read-out: t½ (converted)): 146 h
half-life ([2]; male, sheep, plasma, other: local implant into the bulbourethral gland via rectum, 250 mg, male sheep, 250 mg controlled release implant, read-out: elimination half-life (converted)): ~146 h
SMILES: CC(C)(O)C(=O)Nc1ccc([N+](=O)[O-])c(C(F)(F)F)c1 [2-hydroxy-flutamide]
AUC [2, 6]: 3725 ng·h/mL and 3390 ng·h/mL and 3755 ng·h/mL and 1855 ng·h/mL and 4948 ng·h/mL and 4436 ng·h/mL and 4287 ng·h/mL
Cmax [2, 6]: 84 ng/mL and 35 ng/mL and 19.8 ng/mL and 16.3 ng/mL and 34 ng/mL and 31 ng/mL and 26 ng/mL
t½ [2, 6]: 253 h and 117 h and 67 h and 168 h and 119 h and 140 h and 159 h
